According to the CheMixHub viscosity set:

Assay: xn = mol fraction of the nth substance listed

O=c1[nH]c2nc(O)nc(O)c2[nH]1 + O
viscosity [mPa·s], 101.3 kPa
Settings | 298.15 K | 303.15 K | 308.15 K | 313.15 K
x1 = 1e-06 | 0.9 | 0.82 | 0.73 | 0.63
x1 = 2e-06 | 0.9 | 0.83 | 0.75 | 0.65
x1 = 3e-06 | 0.91 | 0.84 | 0.76 | 0.66

CCCCOC(C)=O + CCCCCCCC
298.15 K, 101.3 kPa
Settings | viscosity [mPa·s]
x1 = 0.0442 | 0.5144
x1 = 0.1275 | 0.5154
x1 = 0.2822 | 0.5241
x1 = 0.3556 | 0.5333
x1 = 0.4596 | 0.5465
x1 = 0.5629 | 0.5633
x1 = 0.6356 | 0.5776
x1 = 0.7305 | 0.5991
x1 = 0.8441 | 0.6298
x1 = 0.9724 | 0.6725

CCCN + CC(C)(C)O
298.15 K, 101 kPa
Settings | viscosity [mPa·s]
x2 = 0.0967 | 0.512
x2 = 0.2039 | 0.727
x2 = 0.3012 | 0.969
x2 = 0.4 | 1.263
x2 = 0.4992 | 1.614
x2 = 0.5874 | 1.975
x2 = 0.6813 | 2.415
x2 = 0.7999 | 3.09
x2 = 0.9183 | 3.806

CCCN + CCO
Settings | viscosity [mPa·s]
298.15 K, 100 kPa, x2 = 0.0515 | 0.3851
298.15 K, 100 kPa, x2 = 0.098 | 0.4053
298.15 K, 100 kPa, x2 = 0.2026 | 0.4571
298.15 K, 100 kPa, x2 = 0.2763 | 0.4993
298.15 K, 100 kPa, x2 = 0.3874 | 0.5717
298.15 K, 100 kPa, x2 = 0.4986 | 0.6539
298.15 K, 100 kPa, x2 = 0.6013 | 0.7371
298.15 K, 100 kPa, x2 = 0.7485 | 0.865
298.15 K, 100 kPa, x2 = 0.7991 | 0.9101
298.15 K, 100 kPa, x2 = 0.8981 | 0.9984
298.15 K, 100 kPa, x2 = 0.961 | 1.052
303.15 K, 101.33 kPa, x1 = 0.1084 | 0.9336
303.15 K, 101.33 kPa, x1 = 0.2091 | 0.8629
303.15 K, 101.33 kPa, x1 = 0.3178 | 0.7773
303.15 K, 101.33 kPa, x1 = 0.4096 | 0.7051
303.15 K, 101.33 kPa, x1 = 0.5111 | 0.6253
303.15 K, 101.33 kPa, x1 = 0.6177 | 0.5566
303.15 K, 101.33 kPa, x1 = 0.7059 | 0.5029
303.15 K, 101.33 kPa, x1 = 0.8061 | 0.4453
303.15 K, 101.33 kPa, x1 = 0.901 | 0.3982
313.15 K, 101.33 kPa, x1 = 0.1084 | 0.7854
313.15 K, 101.33 kPa, x1 = 0.2091 | 0.7216
313.15 K, 101.33 kPa, x1 = 0.3178 | 0.6541
313.15 K, 101.33 kPa, x1 = 0.4096 | 0.5979
313.15 K, 101.33 kPa, x1 = 0.5111 | 0.5352
313.15 K, 101.33 kPa, x1 = 0.6177 | 0.475
313.15 K, 101.33 kPa, x1 = 0.7059 | 0.4325
313.15 K, 101.33 kPa, x1 = 0.8061 | 0.3864
313.15 K, 101.33 kPa, x1 = 0.901 | 0.3474

CCC[n+]1ccccc1.F[B-](F)(F)F + CO
101 kPa
Settings | viscosity [mPa·s]
303.15 K, x1 = 0.8956 | 59.95
323.15 K, x1 = 0.3918 | 4.475

CCCCOC(C)=O + CCCCCCC
298.15 K, 101.3 kPa
Settings | viscosity [mPa·s]
x1 = 0.0364 | 0.4006
x1 = 0.1529 | 0.4135
x1 = 0.2504 | 0.4295
x1 = 0.3266 | 0.4449
x1 = 0.4281 | 0.4667
x1 = 0.5399 | 0.4974
x1 = 0.6531 | 0.5328
x1 = 0.7531 | 0.5696
x1 = 0.8609 | 0.6155
x1 = 0.9693 | 0.6674

Oc1ccccc1Cl + CC(C)CO
Settings | viscosity [mPa·s]
303.15 K, 101 kPa, x1 = 0.3796 | 5.333

CCCCOC(C)=O + CCC(C)=O
308 K, 101 kPa
Settings | viscosity [mPa·s]
x1 = 0.0999 | 0.468
x1 = 0.2002 | 0.484
x1 = 0.3 | 0.52
x1 = 0.4 | 0.533
x1 = 0.4997 | 0.569
x1 = 0.5997 | 0.584
x1 = 0.7 | 0.606
x1 = 0.7997 | 0.642
x1 = 0.9004 | 0.669

Oc1ccccc1Cl + CCN(CC)c1ccccc1
viscosity [mPa·s], 101 kPa
Settings | x1 = 0.1 | x1 = 0.2015 | x1 = 0.3033 | x1 = 0.4011 | x1 = 0.497 | x1 = 0.6026 | x1 = 0.7 | x1 = 0.7988 | x1 = 0.9003
298 K | 2.116 | 2.366 | 2.722 | 3.122 | 3.629 | 4.195 | 4.548 | 4.623 | 4.12
303 K | 1.858 | 2.053 | 2.31 | 2.589 | 2.933 | 3.337 | 3.533 | 3.605 | 3.32
308 K | 1.668 | 1.818 | 2.013 | 2.192 | 2.432 | 2.741 | 2.89 | 2.938 | 2.769
313 K | 1.507 | 1.626 | 1.775 | 1.94 | 2.12 | 2.318 | 2.42 | 2.463 | 2.361
318 K | 1.37 | 1.47 | 1.641 | 1.701 | 1.841 | 1.998 | 2.086 | 2.129 | 2.135

CCCCC[NH3+].O=[N+]([O-])[O-] + O
298 K, 101 kPa
Settings | viscosity [mPa·s]
x2 = 0.2 | 69.13
x2 = 0.299 | 47.41
x2 = 0.399 | 30.46
x2 = 0.499 | 20.51
x2 = 0.6 | 14.23
x2 = 0.702 | 9.1
x2 = 0.799 | 5.47
x2 = 0.9 | 2.71
x2 = 0.95 | 1.67

CC(C)c1ccccc1 + CCCCCCCCCCCCCCCC
viscosity [mPa·s], 100 kPa
Settings | x2 = 0.0536 | x2 = 0.1093 | x2 = 0.2207 | x2 = 0.2969 | x2 = 0.4217 | x2 = 0.5376 | x2 = 0.6083 | x2 = 0.7347 | x2 = 0.823 | x2 = 0.8933
298.15 K | 0.834 | 0.921 | 1.117 | 1.249 | 1.525 | 1.815 | 2.002 | 2.356 | 2.602 | 2.783
308.15 K | 0.77 | 0.846 | 1.018 | 1.136 | 1.348 | 1.561 | 1.687 | 1.932 | 2.098 | 2.236
318.15 K | 0.688 | 0.76 | 0.904 | 1.003 | 1.176 | 1.34 | 1.444 | 1.629 | 1.756 | 1.859

CCCOC(=O)c1ccccc1 + CCCCCC
101 kPa
Settings | viscosity [mPa·s]
298.15 K, x2 = 0.0545 | 2.09
298.15 K, x2 = 0.1249 | 1.794
298.15 K, x2 = 0.1605 | 1.659
298.15 K, x2 = 0.2369 | 1.409
298.15 K, x2 = 0.2765 | 1.298
298.15 K, x2 = 0.33 | 1.155
298.15 K, x2 = 0.3772 | 1.043
298.15 K, x2 = 0.4847 | 0.827
298.15 K, x2 = 0.5259 | 0.756
298.15 K, x2 = 0.5689 | 0.69
298.15 K, x2 = 0.6152 | 0.627
298.15 K, x2 = 0.6632 | 0.569
298.15 K, x2 = 0.7031 | 0.525
298.15 K, x2 = 0.7496 | 0.479
298.15 K, x2 = 0.7954 | 0.448
298.15 K, x2 = 0.8308 | 0.42
298.15 K, x2 = 0.8752 | 0.399
298.15 K, x2 = 0.9201 | 0.371
298.15 K, x2 = 0.9574 | 0.351
308.15 K, x2 = 0.0876 | 1.62
308.15 K, x2 = 0.1454 | 1.451
308.15 K, x2 = 0.1923 | 1.32
308.15 K, x2 = 0.2499 | 1.174
308.15 K, x2 = 0.3064 | 1.046
308.15 K, x2 = 0.3543 | 0.95
308.15 K, x2 = 0.4116 | 0.845
308.15 K, x2 = 0.4488 | 0.785
308.15 K, x2 = 0.5082 | 0.698
308.15 K, x2 = 0.5509 | 0.643
308.15 K, x2 = 0.5926 | 0.594
308.15 K, x2 = 0.6346 | 0.55
308.15 K, x2 = 0.6803 | 0.507
308.15 K, x2 = 0.7241 | 0.468
308.15 K, x2 = 0.7719 | 0.433
308.15 K, x2 = 0.8096 | 0.406
308.15 K, x2 = 0.857 | 0.376
308.15 K, x2 = 0.8946 | 0.354
308.15 K, x2 = 0.9406 | 0.334
318.15 K, x2 = 0.0693 | 1.388
318.15 K, x2 = 0.1096 | 1.288
318.15 K, x2 = 0.1613 | 1.172
318.15 K, x2 = 0.221 | 1.048
318.15 K, x2 = 0.2711 | 0.954
318.15 K, x2 = 0.3284 | 0.856
318.15 K, x2 = 0.3767 | 0.781
318.15 K, x2 = 0.432 | 0.705
318.15 K, x2 = 0.4801 | 0.644
318.15 K, x2 = 0.5314 | 0.586
318.15 K, x2 = 0.5757 | 0.54
318.15 K, x2 = 0.6264 | 0.494
318.15 K, x2 = 0.6694 | 0.457
318.15 K, x2 = 0.7292 | 0.411
318.15 K, x2 = 0.76 | 0.391
318.15 K, x2 = 0.8056 | 0.362
318.15 K, x2 = 0.8466 | 0.34
318.15 K, x2 = 0.892 | 0.32
318.15 K, x2 = 0.9292 | 0.304

Cn1c(=O)c2c(ncn2C)n(C)c1=O + OCCO
viscosity [mPa·s], 100 kPa
Settings | 293.15 K | 298.15 K | 303.15 K | 308.15 K | 313.15 K | 318.15 K | 323.15 K
x1 = 0.00056 | 20.79 | 16.86 | 13.79 | 11.41 | 9.55 | 8.092 | 6.902
x1 = 0.00112 | 20.75 | 16.8 | 13.77 | 11.36 | 9.528 | 8.07 | 6.89
x1 = 0.00166 | 20.69 | 16.76 | 13.72 | 11.34 | 9.492 | 8.048 | 6.866
x1 = 0.00222 | 20.64 | 16.71 | 13.67 | 11.3 | 9.464 | 8.019 | 6.833
x1 = 0.00285 | 20.57 | 16.66 | 13.63 | 11.27 | 9.426 | 7.982 | 6.805
x1 = 0.00335 | 20.53 | 16.63 | 13.59 | 11.23 | 9.403 | 7.965 | 6.785

CC(C)c1ccccc1 + CN(C)c1ccccc1
viscosity [mPa·s], 101 kPa
Settings | x1 = 0.2 | x1 = 0.4 | x1 = 0.6 | x1 = 0.8
293.15 K | 1.228 | 1.085 | 0.963 | 0.865
313.15 K | 0.915 | 0.817 | 0.733 | 0.666

O=[PH2][O-].[Na+] + O
Settings | viscosity [mPa·s]
298.15 K, 101 kPa, x1 = 0.2095 | 4.83

CC(C)C(C)O (stereo unspecified) + NCc1ccccc1
viscosity [mPa·s], 101.33 kPa
Settings | x2 = 0.0999 | x2 = 0.2 | x2 = 0.3002 | x2 = 0.4001 | x2 = 0.4997 | x2 = 0.5998 | x2 = 0.6999 | x2 = 0.7997 | x2 = 0.9
298.15 K | 3.336 | 3.109 | 2.89 | 2.683 | 2.49 | 2.315 | 2.131 | 1.96 | 1.81
303.15 K | 2.903 | 2.663 | 2.443 | 2.249 | 2.084 | 1.927 | 1.792 | 1.673 | 1.571
308.15 K | 2.388 | 2.184 | 2.009 | 1.853 | 1.724 | 1.614 | 1.521 | 1.449 | 1.404

CCCN + C=C(C)C(=O)OC
303.15 K, 101 kPa
Settings | viscosity [mPa·s]
x2 = 0.1506 | 0.382
x2 = 0.3776 | 0.4355
x2 = 0.5053 | 0.4623
x2 = 0.6058 | 0.4809
x2 = 0.8285 | 0.5081
